In ChEMBL document CHEMBL4477199, “Design and synthesis of novel bicalutamide and enzalutamide derivatives as antiproliferative agents for the treatment of prostate cancer” (Eur J Med Chem, 2016):

Columns and labels:
[1] = system: CWR22R; test: Antiproliferative activity against human 22Rv1 cells after 96 hrs by propidium iodide staining based fluorescence 2D monolayer assay; assay type: functional, cell-based; conditions: 22Rv1, 96 h
[2] = system: DU-145; test: Antiproliferative activity against human DU145 cells after 96 hrs by propidium iodide staining based fluorescence 2D monolayer assay; assay type: functional, cell-based; conditions: DU-145, 96 h
[3] = system: LNCaP; test: Antiproliferative activity against human LNCAP cells after 96 hrs by propidium iodide staining based fluorescence 2D monolayer assay; assay type: functional, cell-based
[4] = system: VCaP; test: Antiproliferative activity against human VCaP cells after 96 hrs by propidium iodide staining based fluorescence 2D monolayer assay; assay type: functional, cell-based
[5] = 96 h
Description: Solubility in RPMI1640 culture medium at <30 uM incubated for 4 days by microscopic analysis

[6] = 33000 µM
Description: Solubility in 100% DMSO at 33 mM at -20 degC

Row | Compound | IC50 [1] | IC50 [2] | IC50 [3] | IC50 [4] | solubility [5] | solubility [6]
1 | CC(O)(COc1ccc(C(F)(F)F)cc1)C(=O)Nc1ccc(C#N)cc1C(F)(F)F (stereo not given) | 29.9 µM | 32.4 µM | 28.6 µM | 23 µM | Soluble | Soluble
2 | CC(O)(COc1ccccc1C(F)(F)F)C(=O)Nc1ccc(C#N)cc1C(F)(F)F (stereo not given) | 19.6 µM | 33.2 µM | 14 µM | 21.9 µM | Soluble | Soluble
3 | CC(O)(CSc1ccc(OC(F)(F)F)cc1)C(=O)Nc1ccc([N+](=O)[O-])cc1C(F)(F)F (stereo not given) | 61.9 µM | 69.6 µM | 100 µM | 100 µM | Soluble | Soluble
4 | CC(O)(COc1ccc(OC(F)(F)F)cc1)C(=O)Nc1ccc(C#N)cc1C(F)(F)F (stereo not given) | 28 µM | 34.6 µM | 27.7 µM | 22.4 µM | Soluble | Soluble
5 | C[C@](O)(CS(=O)(=O)c1cccc(C(F)(F)F)c1)C(=O)Nc1ccc(C#N)c(C(F)(F)F)c1 | 25.7 µM | 45.2 µM | 13.2 µM | 39.9 µM | Soluble | Soluble
6 | CC(O)(CSc1cc(C(F)(F)F)ccn1)C(=O)Nc1ccc([N+](=O)[O-])cc1C(F)(F)F (stereo not given) | 11.5 µM | 14 µM | 5.52 µM | 17.4 µM | Soluble | Soluble
7 | CC(O)(COc1ccc(F)cc1F)C(=O)Nc1ccc(C#N)c(C(F)(F)F)c1 (stereo not given) | 34 µM | 44.3 µM | 37.3 µM | 38.7 µM | Soluble | Soluble
8 | CC(O)(CS(=O)(=O)c1ccccc1C(F)(F)F)C(=O)Nc1ccc(C#N)c(C(F)(F)F)c1 (stereo not given) | 46.6 µM | 55 µM | 42.7 µM | 58.6 µM | Soluble | Soluble
9 | CC(O)(CSc1ccccc1C(F)(F)F)C(=O)Nc1ccc(C(F)(F)F)cc1 (stereo not given) | 5.2 µM | 8.76 µM | 7.22 µM | 5.86 µM | Soluble | Soluble
10 | CC(O)(COc1cccc(C(F)(F)F)c1)C(=O)Nc1ccc(C#N)cc1C(F)(F)F (stereo not given) | 18.7 µM | 32.1 µM | 15.2 µM | 21.6 µM | Soluble | Soluble
11 | C[C@](O)(CSc1ccc(OC(F)(F)F)cc1)C(=O)Nc1ccc(C#N)c(C(F)(F)F)c1 | 28.8 µM | 29.8 µM | 19.8 µM | 17.4 µM | Soluble | Soluble
12 | CC(O)(COc1ccc(F)c(F)c1)C(=O)Nc1ccc(C#N)c(C(F)(F)F)c1 (stereo not given) | 35.5 µM | 45.2 µM | 19 µM | 25.6 µM | Soluble | Soluble
13 | CC(O)(CSc1cccc(C(F)(F)F)c1)C(=O)Nc1ccc(C#N)cc1C(F)(F)F (stereo not given) | 15.2 µM | 21.1 µM | 11.3 µM | 23.5 µM | Soluble | Soluble
14 | CC(O)(COc1ccc(F)c(F)c1)C(=O)Nc1ccc(C#N)cc1C(F)(F)F (stereo not given) | 37 µM | 41.9 µM | 34.8 µM | 47.2 µM | Soluble | Soluble
15 | CC(O)(CSc1ccc(F)c(F)c1)C(=O)Nc1ccc([N+](=O)[O-])cc1C(F)(F)F (stereo not given) | 83.6 µM | 100 µM | 83 µM | 100 µM | Soluble | Soluble
16 | CC(O)(CS(=O)(=O)c1ccccc1C(F)(F)F)C(=O)Nc1ccc(C#N)cc1C(F)(F)F (stereo not given) | 98.8 µM | 100 µM | 74 µM | 100 µM | Soluble | Soluble
17 | CC(O)(CSc1ccc(F)cc1)C(=O)Nc1ccc([N+](=O)[O-])cc1C(F)(F)F (stereo not given) | 17.6 µM | 26.4 µM | 11.9 µM | 21.1 µM | Soluble | Soluble
18 | CC(O)(COc1cccc(OC(F)(F)F)c1)C(=O)Nc1ccc(C(F)(F)F)cc1 (stereo not given) | 15.4 µM | 29.4 µM | 2.16 µM | 4.28 µM | Soluble | Soluble
19 | CC(O)(CS(=O)(=O)c1ccc(F)cc1)C(=O)Nc1ccc(C#N)cc1C(F)(F)F (stereo not given) | 77 µM | 100 µM | 91.6 µM | 65.2 µM | Soluble | Soluble
20 | CC(O)(CS(=O)(=O)c1ccccc1C(F)(F)F)C(=O)Nc1ccc([N+](=O)[O-])cc1C(F)(F)F (stereo not given) | 28.3 µM | 46.1 µM | 20.5 µM | 38.6 µM | Soluble | Soluble

Row | Compound | IC50 [1] | IC50 [2] | IC50 [3] | IC50 [4] | solubility [5] | solubility [6]
21 | CC(O)(COc1ccccc1OC(F)(F)F)C(=O)Nc1ccc(C#N)cc1C(F)(F)F (stereo not given) | 16.7 µM | 27.1 µM | 33.8 µM | 43.9 µM | Soluble | Soluble
22 | CC(O)(CSc1ccc(C(F)(F)F)cc1)C(=O)Nc1ccc(C#N)cc1C(F)(F)F (stereo not given) | – | – | – | – | Soluble | Soluble
23 | CC(O)(COc1ccc(F)cc1F)C(=O)Nc1ccc(C#N)cc1C(F)(F)F (stereo not given) | 60.9 µM | 99.5 µM | 30.6 µM | 50.6 µM | Soluble | Soluble
24 | CC(O)(COc1cccc(C(F)(F)F)c1)C(=O)Nc1ccc(C(F)(F)F)cc1 (stereo not given) | 25.7 µM | 27.4 µM | 18.2 µM | 18.6 µM | Soluble | Soluble
25 | CC1(C)C(=O)N(c2cccc(C(F)(F)F)c2)C(=O)N1c1ccccc1C(F)(F)F | 100 µM | 100 µM | 28.3 µM | 100 µM | Soluble | Soluble
26 | CC(O)(CSc1ccc(C(F)(F)F)cc1)C(=O)Nc1ccc([N+](=O)[O-])cc1C(F)(F)F (stereo not given) | 14.6 µM | 19.2 µM | 8.66 µM | 17.1 µM | Soluble | Soluble
27 | CC(O)(COc1cccc(OC(F)(F)F)c1)C(=O)Nc1ccc(C#N)c(C(F)(F)F)c1 (stereo not given) | 9.79 µM | 16.4 µM | 9.83 µM | 9.91 µM | Soluble | Soluble
28 | CC(O)(CS(=O)(=O)c1ccccc1OC(F)(F)F)C(=O)Nc1ccc([N+](=O)[O-])cc1C(F)(F)F (stereo not given) | 28.8 µM | 39 µM | 17.8 µM | 51.7 µM | Soluble | Soluble
29 | CC(O)(CS(=O)(=O)c1ccc(C(F)(F)F)cc1)C(=O)Nc1ccc([N+](=O)[O-])cc1C(F)(F)F (stereo not given) | 25.4 µM | 40.9 µM | 29.3 µM | 46.9 µM | Soluble | Soluble
30 | CC(O)(CS(=O)(=O)c1cccc(C(F)(F)F)c1)C(=O)Nc1ccc(C#N)cc1C(F)(F)F (stereo not given) | 34.4 µM | 45.9 µM | 32.1 µM | 44.9 µM | Soluble | Soluble
31 | CC(O)(COc1ccc(C#N)c(F)c1)C(=O)Nc1ccc(C#N)cc1C(F)(F)F (stereo not given) | 45.3 µM | 68.8 µM | 78.3 µM | 77.2 µM | Soluble | Soluble
32 | C[C@](O)(CS(=O)(=O)c1ccccc1C(F)(F)F)C(=O)Nc1ccc(C#N)c(C(F)(F)F)c1 | 34.8 µM | 44.3 µM | 32.2 µM | 37.3 µM | Soluble | Soluble
33 | C[C@](O)(CSc1ccc(F)cc1F)C(=O)Nc1ccc(C#N)c(C(F)(F)F)c1 | 17.2 µM | 28.5 µM | 25.2 µM | 18.3 µM | Soluble | Soluble
34 | CC(O)(COc1ccccc1C(F)(F)F)C(=O)Nc1ccc(C#N)c(C(F)(F)F)c1 (stereo not given) | 11.6 µM | 17.3 µM | 9.68 µM | 16.6 µM | Soluble | Soluble
35 | CC(O)(COc1ccc(F)cc1F)C(=O)Nc1ccc([N+](=O)[O-])c(C(F)(F)F)c1 (stereo not given) | 20.2 µM | 22.4 µM | 10.1 µM | 20.9 µM | Soluble | Soluble
36 | CC(O)(COc1ccccc1C(F)(F)F)C(=O)Nc1ccc(C(F)(F)F)cc1 (stereo not given) | 6.42 µM | 26.4 µM | 6.98 µM | 11.5 µM | Soluble | Soluble
37 | CC(O)(COc1cccc(OC(F)(F)F)c1)C(=O)Nc1ccc(C#N)cc1C(F)(F)F (stereo not given) | 28.7 µM | 35.9 µM | 63.4 µM | 56.3 µM | Soluble | Soluble
38 | CC(O)(CSc1ccc(C(F)(F)F)cn1)C(=O)Nc1ccc(C#N)c(C(F)(F)F)c1 (stereo not given) | 53.9 µM | 84.1 µM | 80.7 µM | 89.3 µM | Soluble | Soluble
39 | CC(O)(CSc1ccc(C(F)(F)F)cc1)C(=O)Nc1ccc(C#N)c(C(F)(F)F)c1 (stereo not given) | – | – | – | – | Soluble | Soluble
40 | C[C@](O)(CSc1ccccc1C(F)(F)F)C(=O)Nc1ccc(C#N)c(C(F)(F)F)c1 | 5.3 µM | 7.69 µM | 7.9 µM | 2.95 µM | – | –
